Experimental data: patent US5919635A (ZymoGenetics, Inc., priority 1995, dated 1999)
No end group written: not given here.

Tests used:
[1] = test system: CRE-luciferase (KZ6) in BHK570 cells; assay: Luciferase assay response to forskolin of KZ6-transfected BHK570 clone BHK/KZ6-19-46; type: cell-based
Method: Plasmid KZ6 was transfected into BHK570 cells (deposited with the American Type Culture Collection under Accession No. 10314) using the calcium phosphate precipitation method essentially as described by Graham and Van der Eb (Virology 52:456, 1973, which is incorporated by reference herein in its entirety). The transfected cells were grown in growth medium (Dulbecco's modified Eagle's medium (DMEM) containing 10% fetal calf serum, 1× PSN antibiotic mix (GIBCO-BRL), and 2.0 mM L-glutamine). After a few days in non-selective growth medium, the growth medium was replaced with G418 selection medium (growth medium containing 500 μg/ml of G418). The cells were then allowed to grow to confluency after which they are trypsinized and plated at limiting dilution into the wells of 96-well plates. The cells were grown for one to two weeks in G418 selection media. Clones from wells containing single colonies were assayed for the ability to respond to forskolin in the luciferase assay described below. Forskolin elevates the cellular cAMP level and thus the associated cAMP-dependent biological response pathways in a receptor-independent manner.
(§1) Following induction, the medium was removed, and the wells were washed once with 200 μl/well PBS. […] The fold induction of luciferase for each agonist was calculated as follows: [formula]

isolated human islets = assay: Insulin secretory function of isolated human pancreatic islets after perfusion; type: cell-based
Method: Islet cells were isolated from human pancreata obtained from organ transplant donors for whom a matched recipient was not available. After in situ perfusion with cold UW solution (Du Pont, Boston, Mass.), each pancreas was carefully excised, the pancreatic duct cannulated, and 4 mg/ml collagenase solution (Type V, Sigma, St. Louis, Mo.) infused at a constant rate, first at 4° C. and then 39° C. The gland was teased apart, and liberated fragments were washed by centrifugation, triturated through needles of decreasing caliber, and purified by discontinuous Ficoll density centrifugation (Warnock, Diabetes 35(Suppl. 1):136-139, 1989). Material harvested from the upper interfaces was pooled and counted after a determination of islet purity by dithiazone staining. Islets used in library construction were greater than 65% pure, while islets used in Northern blots were greater than 40% pure. The average islet diameter was 175 μm.

rat glucagon receptor = target: T1, rat glucagon receptor (Rattus norvegicus, UniProt P30082); assay: CRE-luciferase induction in pLJ4 transfectant clone KZ6/rGR-DHFR-2; type: cell-based; details: listed 200 nM GLP, 20 nM VIP, 100 nM CT, 4 hours at 37° C.
T1 construct: pLJ4 contained an approximately 2 kb insert encoding a 485 amino acid protein; expressed in transfected cells; host or cells: BHK/KZ6-19-46 (BHK570 with CRE-luciferase plasmid KZ6), clone KZ6/rGR-DHFR-2
Method: D. Luciferase and Adenylate Cyclase Activity Assays on Whole Cells
BHK/KZ6-19-46 cells were co-transfected with pLJ4 and pLJ1 or with pZCEP and pLJ1 (pZCEP transfectants were used as negative controls) as described above using calcium phosphate-mediated transfection. Transfectants were selected in 250 nM methotrexate as described previously.
Transfectants were assayed in triplicate for the induction of the CRE-luciferase response by selected agonists. Six random pLJ4 transfectants were assayed, and random pZCEP transfectants were assayed (negative controls). Microtiter assay plates were set up such that each well contained 2×10^4 cells in 100 μl of selection medium, and the cells were grown overnight. The agonists were prepared in selection medium, at the 2× final assay concentration listed:
Induction was initiated by the addition of 100 μl for each 2× solution in triplicate sample wells. Uninduced levels were determined in triplicate wells to which 100 μl of DMEM containing 10% fetal calf serum was added. The plates were incubated for four hours at 37° C., 5% CO2 to allow induction of luciferase production.
as §1

[2] = target: Rat Glucagon Receptor (pLJ4) in COS-7 cells (Rattus norvegicus, UniProt P30082); assay: cAMP accumulation (Amersham SPA kit) in COS-7 cells transfected with pLJ4; type: cell-based; details: 100 nM to 1000 nM; pLJ4 transfectants
[3] = target: T2, cloned receptor (rat glucagon receptor, pLJ4) (Rattus norvegicus, UniProt P30082); assay: Competition binding / Scatchard analysis with ^125 I-glucagon on membranes of pLJ4 BHK transfectants; details: micromolar amounts (Table 7: 1 μM glucagon and des-His^1 [Glu^9]glucagon amide)
T2 construct: pLJ4 contained an approximately 2 kb insert encoding a 485 amino acid protein; expressed in transfected cells; host or cells: BHK570
Method: Membranes from the pLJ4 BHK transfectants were compared with rat liver membrane preparations for the ability to bind ^125 I-glucagon. Membranes were prepared essentially described by Rodbell et al. (J. Biol Chem. 246:1861-1871, 1971, which is incorporated by reference herein in its entirety). Two batches of liver membranes were each prepared from approximately 80 gm of liver from 12 to 16 decapitated young female rats. The livers were removed quickly and placed into an iced beaker. The livers were separated into ten-gram portions. The portions were minced with scissors, and connective tissue was removed during the mincing procedure. The portions were separately homogenized in a Dounce homogenizer. To each portion, 25 ml of Medium (Table 2) was added to the minced tissue in the homogenizer, and the tissue was homogenized in an ice bucket with eight vigorous strokes of the loose pestle. After homogenization, the homogenates were pooled into 450 ml of cold Medium (Table 2). The pooled homogenates were stirred for 3 minutes and filtered through two layers of cheesecloth followed by filtering through four layers of cheesecloth. The homogenates were then centrifuged for 30 minutes at 1500×g at 4° C. The supernatants were discarded, and the pellets were pooled into a clean Dounce homogenizer. The pellets were resuspended with three gentle strokes of the loose pestle. The resuspended pellets were decanted into a 250 ml graduate containing 62 ml of 69% Sucrose Solution (Table 2). Distilled water was added to a final volume of 110 ml, and the mixture was thoroughly mixed and kept cold. The concentration of the solution was adjusted to 44.0%+/-0.1% using 69% sucrose or water as measured by a refractometer (Bausch & Lomb, Rochester, N.Y.). […]
To each tube 100 μl of 2× binding buffer; 20 μl of ^125 I-glucagon (Amersham); 20 μl of 1 mM NaHCO3; 20 μl 10 mM HOAc, 0.5% BSA (Novo Nordisk N/A, Bagsvaerd, Denmark); and 40 μl of distilled water were added. […] The supernatants from each sample were aspirated, and the pellets were counted. […]

[4] = target: Human Glucagon Receptor (pLJ6') (Homo sapiens, UniProt P47871); assay: cAMP accumulation in pLJ6'-transfected cells; type: cell-based
Method: The related peptides secretin, VIP, PTH, GLP and calcitonin were each added to transfectants at concentrations of 100 nM to 1000 nM and assayed for their ability to induce cAMP levels.
Transfected cells were selected in the presence of G418 until single colonies were visible. Single colonies were cloned using cloning cylinders.
The PLJ6'-transfected cells were assayed for cAMP accumulation essentially as described in Example 8.C.

Rat Glucagon Receptor (pLJ4) in COS-7 cells, sequence (P30082 27-485): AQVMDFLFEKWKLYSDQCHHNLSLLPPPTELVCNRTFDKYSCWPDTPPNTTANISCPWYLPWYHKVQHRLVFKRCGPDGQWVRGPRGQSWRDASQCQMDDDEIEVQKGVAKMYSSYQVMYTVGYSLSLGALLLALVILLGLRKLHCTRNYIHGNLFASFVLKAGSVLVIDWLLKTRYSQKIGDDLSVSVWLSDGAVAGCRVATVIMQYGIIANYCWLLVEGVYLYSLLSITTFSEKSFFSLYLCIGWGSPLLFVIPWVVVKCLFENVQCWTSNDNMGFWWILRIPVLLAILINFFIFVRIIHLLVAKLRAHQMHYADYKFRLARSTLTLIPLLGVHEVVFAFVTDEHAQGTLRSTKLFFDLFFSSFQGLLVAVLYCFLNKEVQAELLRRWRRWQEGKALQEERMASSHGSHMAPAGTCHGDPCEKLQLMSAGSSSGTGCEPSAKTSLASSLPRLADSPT
T1 sequence (P30082 27-485): as above
T2 sequence (P30082 27-485): as above
Human Glucagon Receptor (pLJ6'), sequence (P47871 26-477): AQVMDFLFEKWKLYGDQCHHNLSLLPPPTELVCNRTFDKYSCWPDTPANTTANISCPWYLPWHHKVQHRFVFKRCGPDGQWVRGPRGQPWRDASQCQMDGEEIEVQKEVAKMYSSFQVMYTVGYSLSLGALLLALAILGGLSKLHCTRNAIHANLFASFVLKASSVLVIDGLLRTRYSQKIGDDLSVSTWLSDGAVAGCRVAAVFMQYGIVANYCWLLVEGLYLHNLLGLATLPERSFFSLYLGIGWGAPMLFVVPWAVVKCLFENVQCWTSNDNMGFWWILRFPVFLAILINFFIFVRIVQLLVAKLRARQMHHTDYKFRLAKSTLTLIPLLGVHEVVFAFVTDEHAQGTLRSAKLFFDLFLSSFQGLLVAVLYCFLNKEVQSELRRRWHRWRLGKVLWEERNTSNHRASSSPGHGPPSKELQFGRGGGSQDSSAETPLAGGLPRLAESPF

C=C[C@@]1(C)CC(=O)[C@]2(O)[C@@]3(C)[C@@H](O)CCC(C)(C)[C@@H]3[C@H](O)[C@H](OC(C)=O)[C@@]2(C)O1 [forskolin]
ability to respond to forskolin in the luciferase assay [1]: capable of responding to forskolin

O=C[C@H](O)[C@@H](O)[C@H](O)[C@H](O)CO [glucose]
insulin secretory function (in words) (isolated human islets): both first and second phase insulin secretory function

CC(C)Cn1c(=O)n(C)c(=O)c2[nH]cnc21 [isobutylmethylxanthine (IBMX), isobutylmethylxanthine]
insulin secretory function (in words) (isolated human islets): both first and second phase insulin secretory function

calcitonin
induction of luciferase (in words) (rat glucagon receptor): not induced | ability to induce cAMP levels [2]: none of the related peptides were capable of inducing significant increases in cAMP levels

des-His^1 [Glu^9 ]glucagon amide
ability to compete for ^125 I-glucagon binding [3]: able to compete

secretin: porcine secretin (Sigma) (HSDGTFTSELSRLRDSARLQRLLQGLV; ends and bridges not checked; UniProt P63298 33-59, looked up)
ability to induce cAMP levels [2]: none of the related peptides were capable of inducing significant increases in cAMP levels | cAMP accumulation (in words) [4]: no increased cAMP accumulation

B1: PTH: bovine parathyroid hormone (PTH) (Sigma) (peptide, UniProt P01268 32-115, looked up)
Parathyroid hormone: AVSEIQFMHNLGKHLSSMERVEWLRKKLQDVHNFVALGASIAYRDGSSQRPRKKEDNVLVESHQKSLGEADKADVDVLIKAKPQ
modifications: Parathyroid hormone
ability to induce cAMP levels [2]: none of the related peptides were capable of inducing significant increases in cAMP levels
